Structures are written as SMILES. Bridge positions count the residues as written; N and C are the ends. Square brackets hold non-standard residues; d marks the D form. Peptide text beside a SMILES is read from it. Hyp = O=C(O)[C@@H]1C[C@@H](O)CN1; Cit = NC(=O)NCCC[C@H](N)C(=O)O

The text below walks through data of patent publication US12139520B2 (priority 2020, dated 2024).

The nature of the series: Physical stability of peptide analogues (Thioflavin T fibrillation). As to conditions: maximum ThT signal normalized between hAMY maximum and buffer background; 40° C., shaking, four days; pH 7 per table title. It counts as physicochemical. The procedure:
General Protocols for Determination of Physical Stability of Peptide Analogues
Peptides were dissolved in buffers (50 mM sodium acetate at pH 4 or 50 mM sodium phosphate at pH 7) and incubated for one hour. The samples were then divided into two replicates of 80 μl in a black 384 well plate (μ-clear, Greiner Bio-One) and mixed with Thioflavin T (ThT) to a final concentration of 4 μM. The plate was sealed and placed in a plate reader (CLARIOstar, BMG) where the temperature was set at 40° C. during the course of the experiment. The samples were further stressed by shaking the plate at 700 rpm (linear) for five minutes before every measurement. The fluorescence was measured every 10 min for four days by exciting the ThT at 450 nm and measuring the emission at 480 nm. For each peptide, the ThT signal over time was smoothened using Local Polynomial Regression fitting (LOESS) as implemented in the statistical programming environment R. For the smoothened data, the maximum ThT signal was normalized in percent between the maximum ThT signal for hAMY and the buffer background.
Turning to `CC[C@H](C)[C@H](NC(=O)[C@H](CCC(N)=O)NC(=O)[C@H](Cc1c[nH]cn1)NC(=O)[C@H](C)NC(=O)[C@H](CC(C)C)NC(=O)[C@H](CCCNC(=N)N)NC(=O)[C@H](CCC(N)=O)NC(=O)[C@@H](NC(=O)[C@@H](NC(=O)[C@@H]1CSSC[C@H](NC(=O)CN)C(=O)N[C@@H](CCCNC(=N)N)C(=O)N[C@@H]([C@@H](C)O)C(=O)NCC(=O)N[C@@H]([C@@H](C)O)C(=O)N1)[C@@H](C)O)C(C)C)C(=O)N[C@@H](Cc1ccc(O)cc1)C(=O)N[C@@H](CCC(N)=O)C(=O)N[C@@H](Cc1ccccc1)C(=O)N[C@H](C(=O)N[C@@H](CC(=O)O)C(=O)N[C@@H](CCCCN)C(=O)N[C@@H](CC(=O)O)C(=O)N[C@@H](CCCCN)C(=O)N[C@@H](CC(=O)O)C(=O)N[C@@H](CC(N)=O)C(=O)N[C@H](C(=O)N[C@@H](C)C(=O)N1CCC[C@H]1C(=O)N[C@@H](CCCNC(=N)N)C(=O)N[C@H](C(=O)N[C@@H](CCCCN)C(=O)N[C@H](C(=O)N[C@@H](CO)C(=O)N1CCC[C@H]1C(=O)N[C@@H](CC(N)=O)C(=O)NCC(=O)N1C[C@H](O)C[C@H]1C(N)=O)[C@@H](C)CC)[C@@H](C)O)C(C)C)[C@@H](C)O` [compound 197] (H-GCRTGTCTVQRLAHQIYQFTDKDKDNVAPRTKISPNG[Hyp]-NH2; disulfide 2-7; N-terminus assumed), the “Max ThT signal (%)” value came to 5.600%.

`CC[C@H](C)[C@H](NC(=O)[C@H](CCC(N)=O)NC(=O)[C@H](Cc1c[nH]cn1)NC(=O)[C@H](C)NC(=O)[C@H](CC(C)C)NC(=O)[C@H](CCCNC(=N)N)NC(=O)[C@H](CCC(N)=O)NC(=O)[C@@H](NC(=O)[C@@H](NC(=O)[C@@H]1CSSC[C@H](NC(=O)CN)C(=O)N[C@@H](CCCNC(=N)N)C(=O)N[C@@H]([C@@H](C)O)C(=O)NCC(=O)N[C@@H]([C@@H](C)O)C(=O)N1)[C@@H](C)O)C(C)C)C(=O)N[C@@H](Cc1ccc(O)cc1)C(=O)N[C@@H](CCC(N)=O)C(=O)N[C@@H](Cc1ccccc1)C(=O)N[C@H](C(=O)N[C@@H](CC(=O)O)C(=O)N[C@@H](CCCCN)C(=O)N[C@@H](Cc1ccccc1)C(=O)N[C@@H](CCCCN)C(=O)N[C@@H](CC(=O)O)C(=O)N[C@@H](CC(N)=O)C(=O)N[C@H](C(=O)N[C@@H](C)C(=O)N1CCC[C@H]1C(=O)N[C@@H](CCCNC(=N)N)C(=O)N[C@@H](CO)C(=O)N[C@@H](CCCCN)C(=O)N[C@H](C(=O)N[C@@H](CO)C(=O)N1CCC[C@H]1C(=O)N[C@@H](CCC(N)=O)C(=O)N[C@@H](CCSC)C(=O)N1C[C@H](O)C[C@H]1C(N)=O)[C@@H](C)CC)C(C)C)[C@@H](C)O` [compound 236] (H-GCRTGTCTVQRLAHQIYQFTDKFKDNVAPRSKISPQM[Hyp]-NH2; disulfide 2-7; N-terminus assumed): the “Max ThT signal (%)” value was 0.600%.

`CC[C@H](C)[C@H](NC(=O)[C@H](CCC(N)=O)NC(=O)[C@H](Cc1c[nH]cn1)NC(=O)[C@H](C)NC(=O)[C@H](CC(C)C)NC(=O)[C@H](CCCNC(=N)N)NC(=O)[C@H](CCC(N)=O)NC(=O)[C@@H](NC(=O)[C@@H](NC(=O)[C@@H]1CSSC[C@H](NC(=O)CN)C(=O)N[C@@H](CCCNC(=N)N)C(=O)N[C@@H]([C@@H](C)O)C(=O)NCC(=O)N[C@@H]([C@@H](C)O)C(=O)N1)[C@@H](C)O)C(C)C)C(=O)N[C@@H](Cc1c[nH]cn1)C(=O)N[C@@H](CCC(N)=O)C(=O)N[C@@H](Cc1ccccc1)C(=O)N[C@H](C(=O)N[C@@H](CC(N)=O)C(=O)N[C@@H](CCCCN)C(=O)N[C@@H](CC(=O)O)C(=O)N[C@@H](CCCCN)C(=O)N[C@@H](CC(=O)O)C(=O)N[C@@H](CC(N)=O)C(=O)N[C@H](C(=O)N[C@@H](C)C(=O)N1CCC[C@H]1C(=O)N[C@@H](CCCNC(=N)N)C(=O)N[C@@H](CO)C(=O)N[C@@H](CCCCN)C(=O)N[C@H](C(=O)N[C@@H](CO)C(=O)N1CCC[C@H]1C(=O)N[C@@H](CCC(N)=O)C(=O)N[C@H](C(=O)N1C[C@H](O)C[C@H]1C(N)=O)[C@@H](C)O)[C@@H](C)CC)C(C)C)[C@@H](C)O` [compound 227] (H-GCRTGTCTVQRLAHQIHQFTNKDKDNVAPRSKISPQT[Hyp]-NH2; disulfide 2-7; N-terminus assumed): the “Max ThT signal (%)” value was found to be 8.500%.

As for `CC[C@H](C)[C@H](NC(=O)[C@H](CCC(N)=O)NC(=O)[C@H](Cc1c[nH]cn1)NC(=O)[C@H](C)NC(=O)[C@H](CC(C)C)NC(=O)[C@H](CCCNC(=N)N)NC(=O)[C@H](CCC(N)=O)NC(=O)[C@@H](NC(=O)[C@@H](NC(=O)[C@@H]1CSSC[C@H](NC(=O)CN)C(=O)N[C@@H](CCCNC(=N)N)C(=O)N[C@@H]([C@@H](C)O)C(=O)NCC(=O)N[C@@H]([C@@H](C)O)C(=O)N1)[C@@H](C)O)C(C)C)C(=O)N[C@@H](Cc1ccc(O)cc1)C(=O)N[C@@H](CCC(N)=O)C(=O)N[C@@H](Cc1ccccc1)C(=O)N[C@H](C(=O)N[C@@H](CC(=O)O)C(=O)N[C@@H](CCCCN)C(=O)N[C@@H](CC(=O)O)C(=O)N[C@@H](CCCCN)C(=O)N[C@@H](CC(=O)O)C(=O)N[C@@H](CC(N)=O)C(=O)N[C@H](C(=O)N[C@@H](C)C(=O)N1CCC[C@H]1C(=O)N[C@@H](CCCNC(=N)N)C(=O)N[C@H](C(=O)N[C@@H](CC(N)=O)C(=O)N[C@H](C(=O)N[C@@H](CO)C(=O)N1CCC[C@H]1C(=O)N[C@@H](CCC(N)=O)C(=O)NCC(=O)N[C@@H](Cc1ccc(O)cc1)C(N)=O)[C@@H](C)CC)[C@@H](C)O)C(C)C)[C@@H](C)O` [compound 199] (H-GCRTGTCTVQRLAHQIYQFTDKDKDNVAPRTNISPQGY-NH2; disulfide 2-7; N-terminus assumed), the “Max ThT signal (%)” value is listed as 8.900%.

With `CC[C@H](C)[C@H](NC(=O)[C@H](C)NC(=O)CNC(=O)[C@H](CC(=O)O)NC(=O)[C@H](CCCCN)NC(=O)[C@H](CC(=O)O)NC(=O)[C@@H](NC(=O)[C@H](Cc1ccccc1)NC(=O)[C@H](CCC(N)=O)NC(=O)[C@H](Cc1ccc(O)cc1)NC(=O)[C@H](CC(C)C)NC(=O)[C@H](Cc1ccccc1)NC(=O)[C@H](Cc1c[nH]cn1)NC(=O)[C@H](C)NC(=O)[C@H](CC(C)C)NC(=O)[C@H](CCCNC(N)=O)NC(=O)[C@H](CCC(N)=O)NC(=O)[C@@H](NC(=O)[C@@H](NC(=O)[C@@H]1CSSC[C@H](NC(=O)CN)C(=O)N[C@@H](CCCNC(=N)N)C(=O)N[C@@H](Cc2ccccc2)C(=O)NCC(=O)N[C@@H]([C@@H](C)O)C(=O)N1)[C@@H](C)O)C(C)C)[C@@H](C)O)C(=O)N[C@@H](C)C(=O)N1CCC[C@H]1C(=O)N[C@@H](CCCNC(=N)N)C(=O)N[C@H](C(=O)N[C@@H](CCCCN)C(=O)N[C@H](C(=O)NCC(=O)N[C@@H](CO)C(=O)N[C@@H](CCC(N)=O)C(=O)NCC(=O)N[C@@H](Cc1ccc(O)cc1)C(N)=O)[C@@H](C)CC)[C@@H](C)O` [compound 282] (H-GCRFGTCTVQ[Cit]LAHFLYQFTDKDGAIAPRTKIGSQGY-NH2; disulfide 2-7; N-terminus assumed), the “Max ThT signal (%)” value is recorded as 4.700%.
